Reference: the supplement of paper PMC5579334
± gives the standard deviation of the averaged measurements.

Tests used:
S1507-2 [1] = experiment: % inhibition of CellTiter-Glo viability at highest tested concentration (72 h), relative to DMSO and benzethonium chloride controls; higher = more inhibition
Procedure, shortened: (§1)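 After seeding 750–1000 cells per well of MPNST cell lines or primary human Schwann cells into 384-well plates preprinted with each compound at five concentrations in 10-fold steps, plates were kept 72 h at 37 °C, 5% CO2. Viability was read as CellTiter-Glo ATP luminescence relative to vehicle and positive-control wells, with duplicates averaged where present. The data were fitted with four-parameter logistic models. Drug sensitivity score and relative IC50, censored at the top concentration, derive from the fits, and percent inhibition refers to the top concentration.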

[2] = system: HSC1 (primary human Schwann cells); experiment: as above
Procedure, shortened: as §1

[3] = system: HSC2 (primary human Schwann cells); experiment: as above
Procedure, shortened: as §1

S462 [4] = experiment: as above
Procedure, shortened: as §1

HS-Sch-2 [5] = experiment: as above
Procedure, shortened: as §1

HS-PSS [6] = experiment: as above
Procedure, shortened: as §1

STS26T [7] = experiment: as above
Procedure, shortened: as §1

YST-1 [8] = experiment: as above
Procedure, shortened: as §1

ST8814 [9] = experiment: as above
Procedure, shortened: as §1

S1507-2 [10] = experiment: drug sensitivity score (DSS, CellTox-Green cytotoxicity, 72 h) (DSS (dimensionless)); higher = more cytotoxic; extreme values may be limits of the assay
Procedure, shortened: (§2)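 For 72 h at 37 °C, MPNST cell lines and primary human Schwann cells were exposed in 384-well plates to five 10-fold compound dilutions. CellTox-Green, added before seeding at a final 1:1000 dilution, gave fluorescence from DNA released by disrupted cells. Signals were scaled to vehicle and positive-control wells, cultures failing plate quality control were left out, and four-parameter logistic fits were applied. Relative IC50 and drug sensitivity score were derived from the fits, with IC50 censored at the top concentration.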

[11] = system: HSC1 (primary human Schwann cells); experiment: as above
Procedure, shortened: as §2

[12] = system: HSC2 (primary human Schwann cells); experiment: as above
Procedure, shortened: as §2

HS-PSS [13] = experiment: as above
Procedure, shortened: as §2

STS26T [14] = experiment: as above
Procedure, shortened: as §2

ST8814 [15] = experiment: as above
Procedure, shortened: as §2

S1507-2 [16] = experiment: drug sensitivity score (DSS, CellTiter-Glo viability, 72 h) (DSS (dimensionless)); higher = more sensitive; extreme values may be limits of the assay
Procedure, shortened: as §1

[17] = system: HSC1 (primary human Schwann cells); experiment: as above
Procedure, shortened: as §1

[18] = system: HSC2 (primary human Schwann cells); experiment: as above
Procedure, shortened: as §1

S462 [19] = experiment: as above
Procedure, shortened: as §1

HS-Sch-2 [20] = experiment: as above
Procedure, shortened: as §1

HS-PSS [21] = experiment: as above
Procedure, shortened: as §1

STS26T [22] = experiment: as above
Procedure, shortened: as §1

YST-1 [23] = experiment: as above
Procedure, shortened: as §1

ST8814 [24] = experiment: as above
Procedure, shortened: as §1

Row | SMILES | % inhibition (S1507-2 [1]) [%] | % inhibition [2] [%] | % inhibition [3] [%] | % inhibition (S462 [4]) [%] | % inhibition (HS-Sch-2 [5]) [%] | % inhibition (HS-PSS [6]) [%] | % inhibition (STS26T [7]) [%] | % inhibition (YST-1 [8]) [%] | % inhibition (ST8814 [9]) [%] | drug sensitivity score (S1507-2 [10]) | drug sensitivity score [11] | drug sensitivity score [12] | drug sensitivity score (HS-PSS [13]) | drug sensitivity score (STS26T [14]) | drug sensitivity score (ST8814 [15]) | drug sensitivity score (S1507-2 [16]) | drug sensitivity score [17] | drug sensitivity score [18] | drug sensitivity score (S462 [19]) | drug sensitivity score (HS-Sch-2 [20]) | drug sensitivity score (HS-PSS [21]) | drug sensitivity score (STS26T [22]) | drug sensitivity score (YST-1 [23]) | drug sensitivity score (ST8814 [24])
1 | CC[C@]1(O)C[C@@H]2CN(CCc3c([nH]c4ccccc34)[C@@](C(=O)OC)(c3cc4c(cc3OC)N(C)[C@H]3[C@@](O)(C(=O)OC)[C@H](OC(C)=O)[C@]5(CC)C=CCN6CC[C@]43[C@@H]65)C2)C1 [Vinblastine] (max concentration tested 1000 nM) | 81.1 ± 2.3 | 76 | 87 | 93.02 ± 0.22 | 91.9 | 67.2 | 92.4 | 83.8 | 84.7 | 19.7 ± 1.8 | 10.7 | 21.5 | 1.24 | 32.9 | 31.1 | 22.63 ± 0.18 | 19.5 | 23.9 | 29.53 ± 0.036 | 30 | 16.2 | 30.1 | 24.8 | 26.8
2 | c1ccc2c(CCNc3ccc(Nc4ccncc4)cc3)c[nH]c2c1 [Serdemetan] (max concentration tested 10000 nM) | 93.39 ± 0.52 | 65.5 | 70.3 | 100.5 ± 0.77 | 96.2 | 95.3 | 78.5 | 92.5 | 99.5 | 4.77 ± 0.64 | 0.111 | 0 | 3.27 | 3.19 | 12.5 | 8.56 ± 0.85 | 6.36 | 7.15 | 10.8 ± 0.46 | 4.57 | 6.09 | 5.45 | 11.6 | 12.2
3 | Cc1ccc(-c2cc(C(F)(F)F)nn2-c2ccc(S(N)(=O)=O)cc2)cc1 [Celecoxib] (max concentration tested 10000 nM) | -6.68 ± 15 | 11.3 | 3.55 | 0.832 ± 4.7 | -1.87 | -9.36 | -2 | 4.7 | -6.53 | 0 | 0 | 0 | 0 | 0 | 0 | 0 | 0.156 | 0 | 0 | 0 | 0 | 0 | 0 | 0
4 | CC[C@@]1(O)C(=O)OCc2c1cc1n(c2=O)Cc2cc3c(CN(C)C)c(O)ccc3nc2-1 [Topotecan] (max concentration tested 10000 nM) | 92.99 ± 0.57 | 91.1 | 93.5 | 96 ± 1.4 | 101 | 87.1 | 92.2 | 99.7 | 93.6 | 16.1 ± 2.5 | 27.9 | 18.4 | 11.1 | 15.6 | 32.1 | 18.9 ± 2.7 | 19.6 | 22 | 27.08 ± 0.12 | 21.7 | 14.6 | 18.3 | 26.3 | 27.2
5 | CC(C)(C#N)c1cc(Cn2cncn2)cc(C(C)(C)C#N)c1 [Anastrozole] (max concentration tested 10000 nM) | -9.3 ± 9.7 | -2.19 | -11 | -13.3 ± 6.7 | -11.4 | -11.6 | -1.93 | 6.26 | -7.93 | 0 | 0 | 0 | 0 | 0 | 0 | 0 | 0 | 0 | 0 | 0 | 0 | 0 | 0 | 0
6 | CC[C@@H]1C(=O)N(C)c2cnc(Nc3ccc(C(=O)N[C@H]4CC[C@H](N5CCN(CC6CC6)CC5)CC4)cc3OC)nc2N1C(C)C [Volasertib] (max concentration tested 1000 nM) | 79.2 ± 8.9 | 53 | 79.3 | 95.95 ± 0.59 | 59.3 | 59.5 | 78.3 | 55.3 | 80.6 | 13.2 ± 1.2 | 12.8 | 19.2 | 0 | 30.8 | 13.9 | 17.138 ± 0.0087 | 10.6 | 14.8 | 21.2 ± 0.31 | 19.5 | 8.74 | 23.5 | 15 | 14.4
